From patent US20010044459A1, “Hydroxamic acid derivatives” (priority 1997, published 2001)
Where a SMILES comes first, the peptide text is derived from it.

How the values were obtained:
[1] = molecular target: NAALADase (Rattus norvegicus, UniProt P70627); assay: In vitro assay of NAALADase activity ([3H]Glu liberated from [3H]NAAG, synaptosomal protein); assay type: biochemical; details: compared with 2-(phosphonomethyl)pentanedioic acid
Description: Substrate and product were resolved by anion-exchange liquid chromatography. […] Quisqualate (100 μM) was included in parallel assay tubes to confirm the specificity of the measurements.

[2] = molecular target: NAALADase (Homo sapiens, UniProt Q04609); details: read-out: Km of NAALADase for NAAG; NAAG as substrate; cited from earlier work
[3] = tested on: cortical cell cultures; assay: In vitro toxicity of NAAG (LDH release); assay type: cell-based, rats; details: NAAG 3 μM for 20 minutes
Description: Experiments are performed after 21 days in cultures.
At the end of exposure, the cells are washed once with HEPES buffered saline solution and then replaced with serum free modified Earle's basal medium. The cultures are then returned to the CO2 incubator for 24 hour recovery.
This control measurement is subtracted from each experimental point.

NAALADase (Rattus norvegicus, UniProt P70627), sequence (P70627 whole entry): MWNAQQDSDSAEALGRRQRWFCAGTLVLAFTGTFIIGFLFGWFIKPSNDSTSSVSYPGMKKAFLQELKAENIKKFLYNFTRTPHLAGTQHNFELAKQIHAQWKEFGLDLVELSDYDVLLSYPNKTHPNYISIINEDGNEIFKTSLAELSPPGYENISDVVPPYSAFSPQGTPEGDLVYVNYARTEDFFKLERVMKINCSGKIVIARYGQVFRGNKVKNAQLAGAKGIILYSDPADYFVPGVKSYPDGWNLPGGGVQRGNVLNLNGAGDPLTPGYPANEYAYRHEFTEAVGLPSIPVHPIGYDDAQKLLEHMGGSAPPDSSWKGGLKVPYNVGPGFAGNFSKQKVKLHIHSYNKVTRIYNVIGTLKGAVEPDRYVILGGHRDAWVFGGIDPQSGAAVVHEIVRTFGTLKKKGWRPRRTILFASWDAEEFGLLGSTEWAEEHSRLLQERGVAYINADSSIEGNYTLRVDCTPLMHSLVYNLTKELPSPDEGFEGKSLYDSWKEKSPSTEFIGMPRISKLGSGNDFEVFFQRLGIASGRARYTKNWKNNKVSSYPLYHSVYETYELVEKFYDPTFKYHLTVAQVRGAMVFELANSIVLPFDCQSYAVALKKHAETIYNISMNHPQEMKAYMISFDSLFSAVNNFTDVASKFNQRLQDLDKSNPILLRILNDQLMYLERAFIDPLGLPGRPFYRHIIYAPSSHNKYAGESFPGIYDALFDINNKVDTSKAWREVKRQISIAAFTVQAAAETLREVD
NAALADase (Homo sapiens, UniProt Q04609), sequence (Q04609 whole entry): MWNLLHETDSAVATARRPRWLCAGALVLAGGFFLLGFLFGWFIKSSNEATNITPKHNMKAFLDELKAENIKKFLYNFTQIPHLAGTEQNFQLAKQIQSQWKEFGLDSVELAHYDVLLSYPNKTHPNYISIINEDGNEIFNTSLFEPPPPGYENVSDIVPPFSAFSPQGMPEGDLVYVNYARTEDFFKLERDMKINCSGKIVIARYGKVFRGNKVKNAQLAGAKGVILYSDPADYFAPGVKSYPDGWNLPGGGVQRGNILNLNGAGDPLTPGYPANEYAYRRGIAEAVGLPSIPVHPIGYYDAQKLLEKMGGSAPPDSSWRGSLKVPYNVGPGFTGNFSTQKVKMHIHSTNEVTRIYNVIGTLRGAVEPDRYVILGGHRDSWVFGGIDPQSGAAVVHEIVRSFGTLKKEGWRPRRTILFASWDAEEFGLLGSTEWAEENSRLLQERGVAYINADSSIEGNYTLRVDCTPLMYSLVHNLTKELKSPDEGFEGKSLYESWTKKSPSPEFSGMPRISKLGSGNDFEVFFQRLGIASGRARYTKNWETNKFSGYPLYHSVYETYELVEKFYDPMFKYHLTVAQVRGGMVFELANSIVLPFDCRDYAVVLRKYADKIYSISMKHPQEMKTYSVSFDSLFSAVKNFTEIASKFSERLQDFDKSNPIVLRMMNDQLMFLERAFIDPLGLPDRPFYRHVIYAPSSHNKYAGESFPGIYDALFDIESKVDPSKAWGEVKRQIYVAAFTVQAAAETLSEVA

Row | Compound | NAALADase inhibiting activity (in words, by comparison) [1] | Km [2] [µM] | % Toxicity [3] [%]
1 | O=C(O)CCC(CP(=O)(O)CCC(=O)O)C(=O)O (stereo not shown) [2-[[2-carboxyethyl)hydroxyphosphinol]methyl]pentanedioic acid] | lower NAALADase inhibiting activity |  | 
2 | O=C(O)CC(CP(=O)(O)O)C(=O)O (stereo not shown) [2-(phosphonomethyl)succinic acid] | much lower NAALADase inhibiting activity |  | 
3 | CC(=O)N[C@@H](CC(=O)O)C(=O)N[C@@H](CCC(=O)O)C(=O)O [NAAG, N-acetyl-aspartyl-glutamate] (Ac-Asp-Glu-OH) |  | 0.54 | 3.51
